Each block holds one compound with its values, some of them ahead of it.
Assays:
[1] = Table 2; Y/N; cited from earlier work
[2] = tested on: primary hepatocytes in sandwich culture; Rat (H4IIE) cells; assay: General cell health / mitochondrial function (ATP) cytotoxicity assays of the liver toxicity screen; format: cell-based; settings: for IC50: Rattus norvegicus, H4IIE, Table 2, unit inferred
Experimental: (§1) Cell Culture: Primary hepatocytes in sandwich culture were obtained freshly-plated from outside vendors and used to assess general liver toxicity. Hepatocytes were plated in 24-well or 96-well microplates at a density of 400 K/well and 100 K/well, respectively, and kept at 37° C., 5% CO2 in a humidified incubator. Sandwich culture plates have a collagen substratum with Matrigel overlay, optimal growth conditions for hepatocytes with intact and functional bile canalicular networks. After 3 days in culture, cells were shipped to the inventor. Upon receipt, medium was replaced with fresh Williams E medium (Sigma) containing 10% bovine serum (Invitrogen), and cells were acclimated overnight prior to treatment (Hewitt et al. 2007).
Rat (H4IIE) cells were seeded in flat bottom 96-well plates at a density of 10,000 cells/well in Eagles Minimum Essential Medium (Sigma Chemical) supplemented with 10% bovine serum and 10% calf serum (Invitrogen). Cells were allowed to equilibrate for approximately 48 hours to allow cells to move into a stable growth phase prior to treatment.
(§2) Cytotoxicity: ATP was measured using an ATP-Lite kit from Perkin Elmer according to the manufacturer's instructions. Membrane integrity was monitored by determining the presence of α-Glutathione S-transferase (α-GST), released into the culture medium using an ELISA assay (Argutus Medical). Intracellular glutathione levels were determined essentially as described by Griffith (1980) with modifications. Cell mass in each well was measured with propidium iodide (PI). This specific nucleic acid binding dye fluoresces when intercalated within the nucleic acids. After incubation, the test compound was removed by aspiration of the media and Triton X-100 solution containing propidium iodide was added to permeabilized cells.

BSEP [3] = biological target: T1, BSEP (UniProt O95342, species not given); assay: BSEP cell-free transport assay; format: biochemical, Rat or human; settings: BSEP cell-free transport assay (GenoMembrane); Table 2; number or Y/N for inhibition, unit inferred
T1 construct: rows headed: BSEP
Experimental: (§3) Rat or human BSEP cell-free assay were performed according to GenoMembrane protocol for BSEP transport analysis.

CYP3A = assay: Inhibition of CYP3A; format: in vitro ADME; settings: Table 2; number or Y/N, unit inferred
hRPTC = assay: Cisplatin cytotoxicity in primary human renal proximal tubule cells (ATP, cell number, membrane integrity, GGT); format: cell-based; settings: FIG. 6, read-out: IC50 for ATP depletion
Experimental: Cytotoxicity: Cell viability was determined by measuring intracellular ATP levels with ATP-Lite from Perkin Elmer according to the manufacturer's instructions. Cell proliferation was determined from bromodeoxyuridine (BrdU) incorporation. Membrane integrity was measured using glutathione S-transferase (GST) as a leakage marker (Argutus). The GST assay was done according to the manufacturer's instructions. Gamma-glutamyl transferase activity (GGT) was measured using the Catachem GGT kit with modifications.

[4] = tested on: primary hepatocytes in sandwich culture; Rat (H4IIE) cells; assay: Intracellular glutathione (GSH) levels, liver toxicity screen; format: cell-based; settings: FIG. 12, read-out: depleting intracellular glutathione levels, IC50
Experimental: as §1, with “2007). […]” for “2007).”
Cytotoxicity: ATP was measured using an ATP-Lite kit from Perkin Elmer according to the manufacturer's instructions. Membrane integrity was monitored by determining the presence of α-Glutathione S-transferase (α-GST), released into the culture medium using an ELISA assay (Argutus Medical). Intracellular glutathione levels were determined essentially as described by Griffith (1980) with modifications. Cell mass in each well was measured with propidium iodide (PI). […]

BSEP [5] = assay: BSEP cell-free transport assay; format: biochemical, Rat or human; settings: Table 2; number or Y/N for inhibition, unit not given
Experimental: as §3

[6] = tested on: primary hepatocytes in sandwich culture; assay: Liver specific toxicity assays in primary hepatocytes in sandwich culture (GSH, mitochondria, oxidative stress, GGT); format: cell-based; settings: FIG. 11
Experimental: as §1, §2
8-ISO levels were determined using an ELISA. 8-ISO is a member of a family of eicosanoids produced non-enzymatically by random oxidation of tissue phospholipids by oxygen radicals. Therefore, an increase in 8-ISO is an indirect measure of increased lipid peroxidation (Vacchiano and Tempel, 1994).
γ-Glutamyltransferase (GGT) activity was measured using the Catachem GGT kit with modifications. After completion of exposures, media was removed from the plates and cell and cell supernatants were stored at −80° C. until analyzed.

hOCT2 = hOCT2 (Homo sapiens, UniProt O15244); settings: hRPTCs; FIG. 4
Chain of hOCT2 (O15244 whole entry): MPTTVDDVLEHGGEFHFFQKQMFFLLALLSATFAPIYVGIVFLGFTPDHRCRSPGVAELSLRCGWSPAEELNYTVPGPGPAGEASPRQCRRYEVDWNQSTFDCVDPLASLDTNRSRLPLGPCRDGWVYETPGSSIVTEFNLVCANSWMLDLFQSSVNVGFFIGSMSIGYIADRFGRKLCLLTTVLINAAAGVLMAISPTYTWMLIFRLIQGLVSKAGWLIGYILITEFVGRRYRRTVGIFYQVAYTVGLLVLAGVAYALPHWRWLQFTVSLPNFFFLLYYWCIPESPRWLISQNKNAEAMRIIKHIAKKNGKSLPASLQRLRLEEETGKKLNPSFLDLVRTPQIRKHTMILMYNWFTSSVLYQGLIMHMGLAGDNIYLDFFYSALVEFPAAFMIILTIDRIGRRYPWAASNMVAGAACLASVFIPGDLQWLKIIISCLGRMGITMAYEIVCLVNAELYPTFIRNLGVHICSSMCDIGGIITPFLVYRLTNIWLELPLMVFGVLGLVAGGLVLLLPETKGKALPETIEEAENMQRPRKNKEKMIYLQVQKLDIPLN
Experimental: (§4) Cell Culture: Two cell types were used in this Example—primary human renal proximal tubule cells (hRPTCs) and a well characterized porcine renal proximal tubule (LLC-PK1) cell line. The hRPTCs were obtained from Lonza, Clonetics (Walkersville, Md.) and the LLC-PK1 was obtained from ATCC.
(§5) Establishing Transwell Cultures: The hRPTCs were seeded into Corning transwell-COL 24-well tissue culture plates at a density of 7.4×10^4 cells/well. LLC-PK1 cells were seeded into BD 351181 transwell 24-well tissue culture plates at a cell density of 1.65×10^5 cells/well (FIG. 3). On day 6 of incubation, formation of tight-junctions between cells was determined by Lucifer Yellow and Mannitol. The growth medium used with the hRPTCs was modified DMEM/Ham's F-12, and the medium used for LLC-PK1 was DMEM with 10% FBS (Elwi et al. 2009; Morshed and McMartin, 1995).
(§6) Transport Assays: To determine transporter specific activity, several known substrates were selected: TEA (OCT1 and OCT2), Digoxin (OATP4C1), Metformin (OCT2 basolateral and MATE1 apical). LLC-PK1 cells were seeded in BD 351181 24-well tissue culture plates at a cell density of 1.65×10^5 cells/well. After culturing for 6 days, apical and basolateral chambers were washed at room temperature with D-PBS buffer (containing 137 mM NaCl, 3 mM KCl, 8 mM Na2HPO4, 1.5 mM KH2PO4, 1 mM CaCl2, 0.5 mM MgCl2 and 5 mM D-glucose; pH 7.4) then incubated with non-radiolabeled substrate on both apical and basolateral sides for 60 minutes. Media was removed and the cells rinsed with buffer prior to adding the radiolabeled substrate. Radiolabeled substrate (with or without inhibitor) was added to apical or basolateral chambers, and samples were collected from the opposite side at 40 minutes. Cellular uptake was determined by washing the transwell membranes containing the cells twice with ice-cold D-PBS, then transferring the insert with cells to scintillation vials containing 2% Triton X-100. Scintillation was counted using Opti-Flour (Perkin Elmer) and in a Packard Tri-Carb 2100TR liquid scintillation counter.

OCT2 = OCT2 (Sus scrofa, UniProt O02713); settings: Cimetidine at 500 μM or 1 mM; LLC-PK1 cell model; FIG. 4
Chain of OCT2 (O02713 whole entry): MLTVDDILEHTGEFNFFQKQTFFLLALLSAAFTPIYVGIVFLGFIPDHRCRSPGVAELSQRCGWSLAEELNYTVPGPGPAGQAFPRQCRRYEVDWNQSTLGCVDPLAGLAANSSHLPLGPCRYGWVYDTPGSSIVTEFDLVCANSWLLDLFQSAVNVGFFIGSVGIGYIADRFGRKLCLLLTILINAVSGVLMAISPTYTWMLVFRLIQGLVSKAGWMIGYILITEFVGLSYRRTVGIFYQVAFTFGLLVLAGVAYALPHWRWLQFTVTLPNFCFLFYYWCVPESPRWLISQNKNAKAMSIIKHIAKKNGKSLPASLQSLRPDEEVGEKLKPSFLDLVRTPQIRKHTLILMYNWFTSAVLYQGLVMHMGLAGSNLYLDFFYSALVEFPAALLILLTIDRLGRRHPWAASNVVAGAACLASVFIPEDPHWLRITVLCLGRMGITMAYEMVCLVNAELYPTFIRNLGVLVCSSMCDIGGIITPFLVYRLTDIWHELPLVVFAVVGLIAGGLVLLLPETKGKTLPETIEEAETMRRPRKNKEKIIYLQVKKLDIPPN
Experimental: as §4, §5, §6

SMILES: CCc1ccc(CCOc2ccc(CC3SC(=O)NC3=O)cc2)nc1 (stereo not shown) [Pioglitazone]
Clin Cholestatic [1]: Y-reversible | IC50 [2]: > 300 µM | IC50 (BSEP [3]): 5 µM

IC50 (CYP3A): 2.3 µM
SMILES: CCC(C)n1ncn(-c2ccc(N3CCN(c4ccc(OCC5COC(Cn6cncn6)(c6ccc(Cl)cc6Cl)O5)cc4)CC3)cc2)c1=O (stereo not shown) [Itraconazole]
IC50 [2]: 150 µM

SMILES: N.N.[Cl][Pt][Cl] [cisplatin]
IC50 (hRPTC): ~80 µM

SMILES: CCc1nn(CCCN2CCN(c3cccc(Cl)c3)CC2)c(=O)n1CCOc1ccccc1 [nefazodone]
IC50 [4]: < 50 µM | general cell health, toxicity relative to the other non-tricyclic antidepressants ([2]; FIG. 12, comparison of three non-tricyclic antidepressants): most toxic | BSEP (BSEP [5]): inhibition

SMILES: CN(CCOc1ccc(CC2SC(=O)NC2=O)cc1)c1ccccn1 (stereo not shown) [Rosiglitazone]
IC50 [2]: > 300 µM | IC50 (BSEP [3]): 8 µM

SMILES: S=C=Nc1cccc2ccccc12 [ANIT, α-naphthyl-isothiocyanate]
canalicular membrane integrity (GGT release) [6]: damaged | glutathione [6]: decreased | mitochondria [6]: disrupted | oxidative stress [6]: increased

basolateral-to-apical flux (metformin), effect of inhibitor (hOCT2): not inhibited | cellular uptake (metformin), effect of inhibitor (hOCT2): inhibited | basolateral to apical flux (metformin), effect of inhibitor (OCT2): inhibited | cellular uptake (metformin), effect of inhibitor (OCT2): inhibited
SMILES: CN/C(=N/CCSCc1nc[nH]c1C)NC#N [Cimetidine]
